Assay results from patent US6613718B2, “Aryl ether derivatives and processes for their preparation and herbicidal and desiccant compositions containing them” (Ishihara Sangyo Kaisha, Ltd., priority 2001, dated 2003).

Key:
Assay type in all cases: in vivo
Conditions in all cases: 14 days after application
[1] = test system: barnyardgrass (Echinochloa crus-galli, ECHCG); assay: Pre-emerge greenhouse herbicide activity screening, phytotoxicity rating
From the text: (§1) A standard greenhouse herbicide activity screening system was used to evaluate the herbicidal efficacy and crop safety of these test compounds. Seven broadleaf weed species including redroot pigweed (Amaranthus retroflexus, AMARE), velvetleaf (Abutilon theophrasti, ABUTH), sicklepod (Cassia obtusifolia, CASOB), ivyleaf morningglory (Ipomoea hederacea, IPOHE), lambsquarters (Chenopodium album, CHEAL), common ragweed (Ambrosia artemisiifolia L., AMBEL), and cocklebur (Xanthium strumarium, XANST) were used as test species. Four grass weed species including green foxtail (Setaria viridis, SETVI), barnyardgrass (Echinochloa crus-galli, ECHCG), johnsongrass (Sorghum halepense, SORHA), and large crabgrass (Digitaria sanguinalis, DIGSA) were also used. In addition, three crop species, field corn (Zea mays L., var. Dekalb 535, CORN), soybean (Glycine max L., var. Pella 86, SOY), and upland rice (Oryza sp., var.Tebonnet, RICE) were included.
(§2) All plants were grown in 10 cm square plastic pots which were filled with a sandy loam soil mix. For pre-emerge tests, seeds were planted one day prior to application of the test compounds. For post-emerge tests, seeds were planted 8-21 days prior to the test to allow emergence and good foliage development prior to application of the test substances. At the time of the post-emerge application, plants of all species were usually at the 2-3 leaf stage of development.
(§3) All test compounds were dissolved in acetone and applied to the test units in a volume of 187 1/ha. Test materials were applied at rates ranging from 15 g ai/ha to 1000 g ai/ha using a track sprayer equipped with a TJ8001E even flow flat fan spray nozzle. Plants were arranged on a shelf so that the top of the canopy (post-emerge) or top of the soil surface (pre-emerge) was 40-45 cm below the nozzle. Pressurized air was used to force the test solution through the nozzle as it was mechanically advanced (via electrically driven chain drive) over the top of all test plants/pots. This application simulates a typical commercial field herbicide application.
(§4) In the post-emerge test, a commercial non-ionic surfactant was also included (0.25% v/v) to enhance wetting of the leaf surfaces of target plants. Immediately after application, test units of the pre-emerge applications were watered at the soil surface to incorporate the test materials. Subsequently, these test units were bottom-watered. Post-emerge test units were always bottom-watered.
(§5) At 14 days after application of the test materials, phytotoxicity ratings were recorded. A rating scale of 0-100 was used as previously described in Research Methods in Weed Science, 2nd edition, B. Truelove, Ed., Southern Weed Science Society, Auburn University, Auburn, Ala., 1977. Briefly, “0” corresponds to no damage and “100” corresponds to complete death of all plants in the test unit. This scale was used both to determine efficacy against weed species and damage to crop species. Herbicide activity data for various compounds of this invention, which are shown by compound No. in Tables I-VI, are shown in Tables VIII-IX.

[2] = test system: common ragweed (Ambrosia artemisiifolia L., AMBEL); assay: as above
From the text: as §1, §2, §3, §4, §5

[3] = test system: green foxtail (Setaria viridis, SETVI); assay: as above
From the text: as §1, §2, §3, §4, §5

[4] = test system: ivyleaf morningglory (Ipomoea hederacea, IPOHE); assay: as above
From the text: as §1, §2, §3, §4, §5

[5] = test system: johnsongrass (Sorghum halepense, SORHA); assay: as above
From the text: as §1, §2, §3, §4, §5

[6] = test system: lambsquarters (Chenopodium album, CHEAL); assay: as above
From the text: as §1, §2, §3, §4, §5

[7] = test system: large crabgrass (Digitaria sanguinalis, DIGSA); assay: as above
From the text: as §1, §2, §3, §4, §5

[8] = test system: redroot pigweed (Amaranthus retroflexus, AMARE); assay: as above
From the text: as §1, §2, §3, §4, §5

[9] = test system: sicklepod (Cassia obtusifolia, CASOB); assay: as above
From the text: as §1, §2, §3, §4, §5

[10] = test system: velvetleaf (Abutilon theophrasti, ABUTH); assay: as above
From the text: as §1, §2, §3, §4, §5

[11] = test system: field corn (Zea mays L., var. Dekalb 535, CORN); assay: Pre-emerge greenhouse screening, crop safety (phytotoxicity rating)
From the text: as §1, §2, §3, §4, §5

[12] = test system: soybean (Glycine max L., var. Pella 86, SOY); assay: as above
From the text: as §1, §2, §3, §4, §5

[13] = test system: upland rice (Oryza sp., var.Tebonnet, RICE); assay: as above
From the text: as §1, §2, §3, §4, §5

[14] = test system: barnyardgrass (Echinochloa crus-galli, ECHCG); assay: Post-emerge greenhouse herbicide activity screening, phytotoxicity rating
From the text: as §1, §2, §3, §4, §5

[15] = test system: common ragweed (Ambrosia artemisiifolia L., AMBEL); assay: as above
From the text: as §1, §2, §3, §4, §5

[16] = test system: green foxtail (Setaria viridis, SETVI); assay: as above
From the text: as §1, §2, §3, §4, §5

[17] = test system: ivyleaf morningglory (Ipomoea hederacea, IPOHE); assay: as above
From the text: as §1, §2, §3, §4, §5

[18] = test system: johnsongrass (Sorghum halepense, SORHA); assay: as above
From the text: as §1, §2, §3, §4, §5

[19] = test system: lambsquarters (Chenopodium album, CHEAL); assay: as above
From the text: as §1, §2, §3, §4, §5

[20] = test system: large crabgrass (Digitaria sanguinalis, DIGSA); assay: as above
From the text: as §1, §2, §3, §4, §5

[21] = test system: redroot pigweed (Amaranthus retroflexus, AMARE); assay: as above
From the text: as §1, §2, §3, §4, §5

[22] = test system: sicklepod (Cassia obtusifolia, CASOB); assay: as above
From the text: as §1, §2, §3, §4, §5

[23] = test system: velvetleaf (Abutilon theophrasti, ABUTH); assay: as above
From the text: as §1, §2, §3, §4, §5

[24] = test system: field corn (Zea mays L., var. Dekalb 535, CORN); assay: Post-emerge greenhouse screening, crop safety / corn selectivity (phytotoxicity rating)
From the text: as §1, §2, §3, §4, §5

[25] = test system: soybean (Glycine max L., var. Pella 86, SOY); assay: Post-emerge greenhouse screening, crop safety (phytotoxicity rating)
From the text: as §1, §2, §3, §4, §5

[26] = test system: upland rice (Oryza sp., var.Tebonnet, RICE); assay: as above
From the text: as §1, §2, §3, §4, §5

Cn1c(C(F)(F)F)cc(=O)n(-c2cc(Oc3ncccc3[N+](=O)[O-])c(Cl)cc2F)c1=S [Compound 1-9]
ECHCG phytotoxicity rating (0-100 scale) ([1]; 125 g ai/ha): 95 | ECHCG phytotoxicity rating (0-100 scale) ([1]; 250 g ai/ha): 99 | AMBEL phytotoxicity rating (0-100 scale) ([2]; 125 g ai/ha): 99 | AMBEL phytotoxicity rating (0-100 scale) ([2]; 250 g ai/ha): 100 | SETVI phytotoxicity rating (0-100 scale) ([3]; 125 g ai/ha): 100 | SETVI phytotoxicity rating (0-100 scale) ([3]; 250 g ai/ha): 100 | IPOHE phytotoxicity rating (0-100 scale) ([4]; 125 g ai/ha): 100 | IPOHE phytotoxicity rating (0-100 scale) ([4]; 250 g ai/ha): 100 | SORHA phytotoxicity rating (0-100 scale) ([5]; 125 g ai/ha): 95 | SORHA phytotoxicity rating (0-100 scale) ([5]; 250 g ai/ha): 99 | CHEAL phytotoxicity rating (0-100 scale) ([6]; 125 g ai/ha): 100 | CHEAL phytotoxicity rating (0-100 scale) ([6]; 250 g ai/ha): 100 | DIGSA phytotoxicity rating (0-100 scale) ([7]; 125 g ai/ha): 98 | DIGSA phytotoxicity rating (0-100 scale) ([7]; 250 g ai/ha): 99 | AMARE phytotoxicity rating (0-100 scale) ([8]; 125 g ai/ha): 100 | AMARE phytotoxicity rating (0-100 scale) ([8]; 250 g ai/ha): 100 | CASOB phytotoxicity rating (0-100 scale) ([9]; 125 g ai/ha): 70 | CASOB phytotoxicity rating (0-100 scale) ([9]; 250 g ai/ha): 99 | ABUTH phytotoxicity rating (0-100 scale) ([10]; 125 g ai/ha): 100 | ABUTH phytotoxicity rating (0-100 scale) ([10]; 250 g ai/ha): 100 | CORN crop damage, phytotoxicity rating (0-100 scale) ([11]; 125 g ai/ha): 8 | CORN crop damage, phytotoxicity rating (0-100 scale) ([11]; 250 g ai/ha): 8 | SOY crop damage, phytotoxicity rating (0-100 scale) ([12]; 125 g ai/ha): 50 | SOY crop damage, phytotoxicity rating (0-100 scale) ([12]; 250 g ai/ha): 50 | RICE crop damage, phytotoxicity rating (0-100 scale) ([13]; 125 g ai/ha): 35 | RICE crop damage, phytotoxicity rating (0-100 scale) ([13]; 250 g ai/ha): 35 | ECHCG phytotoxicity rating (0-100 scale) ([14]; 125 g ai/ha): 50 | ECHCG phytotoxicity rating (0-100 scale) ([14]; 250 g ai/ha): 65 | AMBEL phytotoxicity rating (0-100 scale) ([15]; 125 g ai/ha): 70 | AMBEL phytotoxicity rating (0-100 scale) ([15]; 250 g ai/ha): 70 | SETVI phytotoxicity rating (0-100 scale) ([16]; 125 g ai/ha): 60 | SETVI phytotoxicity rating (0-100 scale) ([16]; 250 g ai/ha): 70 | IPOHE phytotoxicity rating (0-100 scale) ([17]; 125 g ai/ha): 100 | IPOHE phytotoxicity rating (0-100 scale) ([17]; 250 g ai/ha): 100 | SORHA phytotoxicity rating (0-100 scale) ([18]; 125 g ai/ha): 50 | SORHA phytotoxicity rating (0-100 scale) ([18]; 250 g ai/ha): 50 | CHEAL phytotoxicity rating (0-100 scale) ([19]; 125 g ai/ha): 100 | CHEAL phytotoxicity rating (0-100 scale) ([19]; 250 g ai/ha): 100 | DIGSA phytotoxicity rating (0-100 scale) ([20]; 125 g ai/ha): 50 | DIGSA phytotoxicity rating (0-100 scale) ([20]; 250 g ai/ha): 60 | AMARE phytotoxicity rating (0-100 scale) ([21]; 125 g ai/ha): 100 | AMARE phytotoxicity rating (0-100 scale) ([21]; 250 g ai/ha): 100 | CASOB phytotoxicity rating (0-100 scale) ([22]; 125 g ai/ha): 50 | CASOB phytotoxicity rating (0-100 scale) ([22]; 250 g ai/ha): 65 | ABUTH phytotoxicity rating (0-100 scale) ([23]; 125 g ai/ha): 100 | ABUTH phytotoxicity rating (0-100 scale) ([23]; 250 g ai/ha): 100 | CORN crop damage, phytotoxicity rating (0-100 scale) ([24]; 125 g ai/ha): 0 | CORN crop damage, phytotoxicity rating (0-100 scale) ([24]; 250 g ai/ha): 3 | SOY crop damage, phytotoxicity rating (0-100 scale) ([25]; 125 g ai/ha): 55 | SOY crop damage, phytotoxicity rating (0-100 scale) ([25]; 250 g ai/ha): 80 | RICE crop damage, phytotoxicity rating (0-100 scale) ([26]; 125 g ai/ha): 0 | RICE crop damage, phytotoxicity rating (0-100 scale) ([26]; 250 g ai/ha): 0
